Measurements taken from ChEMBL document CHEMBL1201862, “PubChem BioAssay data set” (2004).
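Cultured in 96-well plates, cells were exposed to test compound for 48 hours across five concentrations. The concentration for 50% growth inhibition is given as GI50.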 Calls of active or inactive are those of the source. No stated cut-off is given here; in the data, active = GI50 up to about 1.1 µM and inactive = higher.

Legend:
Test in all cases: DTP human tumour cell line panel, 48 h
RPMI-8226 = system: RPMI-8226
SN12C = system: SN12C
OVCAR-4 = system: OVCAR-4
SK-OV-3 = system: SK-OV-3
A498 = system: A498
SR = system: SR
K562 = system: K562
EKVX = system: EKVX
Hs-578T = system: Hs-578T
MDA-MB-435 = system: MDA-MB-435
MCF7 = system: MCF7
CCRF-CEM = system: CCRF-CEM
SNB-19 = system: SNB-19
SW-620 = system: SW-620
MDA-MB-231 = system: MDA-MB-231
DU-145 = system: DU-145
PC-3 = system: PC-3
TK-10 = system: TK-10
UACC-257 = system: UACC-257
T47D = system: T47D
A549 = system: A549
NCI/ADR-RES = system: NCI/ADR-RES
HCT-116 = system: HCT-116
SK-MEL-28 = system: SK-MEL-28
HCC 2998 = system: HCC 2998
IGROV-1 = system: IGROV-1
U-251 = system: U-251
HOP-92 = system: HOP-92
CAKI-1 = system: CAKI-1
HCT-15 = system: HCT-15
786-0 = system: 786-0
NCI-H460 = system: NCI-H460
MOLT-4 = system: MOLT-4
UACC-62 = system: UACC-62
LOX IMVI = system: LOX IMVI
SF-539 = system: SF-539
M14 = system: M14
NCI-H226 = system: NCI-H226
OVCAR-8 = system: OVCAR-8
SF-268 = system: SF-268
COLO 205 = system: COLO 205
SK-MEL-2 = system: SK-MEL-2
SNB-75 = system: SNB-75
OVCAR-5 = system: OVCAR-5
HOP-62 = system: HOP-62
BT-549 = system: BT-549
KM12 = system: KM12
NCI-H23 = system: NCI-H23
SF-295 = system: SF-295
SK-MEL-5 = system: SK-MEL-5
HT-29 = system: HT-29
UO-31 = system: UO-31
NCI-H522 = system: NCI-H522
HL-60 = system: HL-60
ACHN = system: ACHN
OVCAR-3 = system: OVCAR-3
RXF 393 = system: RXF 393

SMILES: C=C1C(=O)OC2C1C(=O)C/C(C)=C/CCC1(C)OC21 (configuration not stated)
- GI50 (RPMI-8226): 12.3 µM (inactive)
- GI50 (SN12C): 22.1 µM (inactive)
- GI50 (OVCAR-4): 18.7 µM (inactive)
- GI50 (SK-OV-3): 29.6 µM (inactive)
- GI50 (A498): 23.1 µM (inactive)
- GI50 (SR): 3.33 µM (inactive)
- GI50 (K562): 5.6 µM (inactive)
- GI50 (EKVX): 25.2 µM (inactive)
- GI50 (Hs-578T): 44.1 µM (inactive)
- GI50 (MDA-MB-435): 15.4 µM (inactive)
- GI50 (MCF7): 8.63 µM (inactive)
- GI50 (CCRF-CEM): 2.79 µM (inactive)
- GI50 (SNB-19): 38.4 µM (inactive)
- GI50 (SW-620): 16.4 µM (inactive)
- GI50 (MDA-MB-231): 20.8 µM (inactive)
- GI50 (DU-145): 17.4 µM (inactive)
- GI50 (PC-3): 18.1 µM (inactive)
- GI50 (TK-10): 16.1 µM (inactive)
- GI50 (UACC-257): 20.1 µM (inactive)
- GI50 (T47D): 11.2 µM (inactive)
- GI50 (A549): 19.4 µM (inactive)
- GI50 (NCI/ADR-RES): 31 µM (inactive)
- GI50 (HCT-116): 14.8 µM (inactive)
- GI50 (SK-MEL-28): 15.2 µM (inactive)
- GI50 (HCC 2998): 18.9 µM (inactive)
- GI50 (IGROV-1): 20.1 µM (inactive)
- GI50 (U-251): 19.5 µM (inactive)
- GI50 (HOP-92): 15.2 µM (inactive)
- GI50 (CAKI-1): 14.7 µM (inactive)
- GI50 (HCT-15): 11.4 µM
- GI50 (786-0): 14 µM (inactive)
- GI50 (NCI-H460): 21.2 µM (inactive)
- GI50 (MOLT-4): 17.3 µM (inactive)
- GI50 (UACC-62): 25.5 µM (inactive)
- GI50 (LOX IMVI): 2.47 µM (inactive)
- GI50 (SF-539): 15 µM (inactive)
- GI50 (M14): 15.6 µM (inactive)
- GI50 (NCI-H226): 15.8 µM (inactive)
- GI50 (OVCAR-8): 25.6 µM (inactive)
- GI50 (SF-268): 19.6 µM (inactive)
- GI50 (COLO 205): 5.45 µM (inactive)
- GI50 (SK-MEL-2): 18.5 µM (inactive)
- GI50 (SNB-75): 25.4 µM (inactive)
- GI50 (OVCAR-5): 17.7 µM (inactive)
- GI50 (HOP-62): 14.2 µM (inactive)
- GI50 (BT-549): 23.3 µM (inactive)
- GI50 (KM12): 23.6 µM (inactive)
- GI50 (NCI-H23): 19.5 µM (inactive)
- GI50 (SF-295): 52.7 µM (inactive)
- GI50 (SK-MEL-5): 19.3 µM (inactive)
- GI50 (HT-29): 20.6 µM (inactive)
- GI50 (UO-31): 15.2 µM (inactive)
- GI50 (NCI-H522): 3.63 µM (inactive)
- GI50 (HL-60): 1.33 µM (inactive)
- GI50 (ACHN): 10.5 µM (inactive)
- GI50 (OVCAR-3): 15.1 µM (inactive)
- GI50 (RXF 393): 15.4 µM (inactive)
